# Results reported in patent US20230129485A1, “SYSTEM AND METHOD FOR DETERMINING MATERIAL PROPERTIES OF MOLECULAR SYSTEMS FROM AN AB-INITIO PARAMETERIZED FORCE-FIELD” (InterX, Inc., priority 2021, published 2023).
# Where two headings read alike, the source gives them in different places.
# Tests used:
# [1] = Free energy of hydration predicted with the QM-parameterized force field model (ARROW FF), classical MD and PIMD simulation in a water box; conditions: for Arrow error: Table 5, error of Arrow PIMD8 hydration free energy vs experiment; for Arrow PIMD8 Error: absolute error vs Exp (hydration)
# Source text: For example, the example QM-parameterized force-field molecular simulation process 400 can use Bennett Acceptance Ratio (BAR) to compute the free energy of hydration/solvation of the molecule in water or any other solvent. In some implementations, the analysis of the molecular dynamics simulations includes analysis, predication, and visualization of ensemble properties of atoms/molecules from atomic and molecular trajectories using the optimized parameters of the QM-parameterized force field model (i.e., the quantum mechanics rule-based reasoning technique) and the QM-parameterized force field model.
# (§1) In some simulations of the QM-parameterized force field molecular simulation process, the molecules were placed in a water or cyclohexane box of size 32×32×32 Å3. Particle-Mesh Ewald (PME) algorithm was used to compute the electrostatic interactions. A 32×32×32 grid mesh and 5th power spline interpolation order can be used to compute the inverse PME sum. 9 Å cutoffs were used to compute the direct PME sum as well as the exchange and dispersion interactions. Bulk corrections were applied to account for distance cut-off of dispersion interactions. Solvation free energies were computed by decoupling the interactions between the solute and the solvent molecules. Electrostatic, exchange-repulsion and dispersion interactions were switched off simultaneously using a lambda-dependent scaling (a scaling factor power=2 was used) and a soft-coring algorithm (maximal soft-coring radius=1.5 Å, soft-coring radius scaling factor power=1). 15 lambda points unequally spaced (X=0, 0.05, 0.1, 0.2, 0.3, 0.4, 0.5, 0.6, 0.7, 0.75, 0.8, 0.85, 0.9, 0.95, 1.0) were used to decouple the solute-solvent intermolecular interactions.
# (§2) In some simulations of the QM-parameterized force field molecular simulation process, energy minimization (10,000 steps) using the steepest descent algorithm was initially performed on all the simulation systems. This was followed by a 50 ps equilibration and 1 ns production runs in the isothermal-isobaric ensemble (NPT). […] Pressure was maintained at 1 atm using a MTTK barostat (relaxation time=5 ps). A Multiple Time Step (MTS) algorithm was used to integrate the equations of motion both for the classical and path-integral runs. […] The calculations were performed using the QM-parameterized force field model.
# Using the QM-parameterized force field model, the QM-parameterized force field device can compute or predict the solvation free energies using both the Bennett acceptance ratio (BAR) and thermodynamic integration (TI) method with <dH/dλ> values interpolated by cubic splines. […] FIG. 7A illustrates a <dH/dλ> dependence for desolvation of Anthracene in water. FIG. 7B illustrates accumulated statistical errors for TI calculations of AG desolvation of Anthracene in water.
# [2] = Free energy of hydration predicted by General Amber Force Field (GAFF), from literature; conditions: Table 5; error of GAFF hydration free energy vs experiment
# [3] = Free energy of hydration predicted by polarizable AMOEBA force field, from literature; conditions: Table 5; error of AMOEBA hydration free energy vs experiment
# [4] = Free energy of hydration by COSMO implicit solvent model (MolPro ver. 2012); conditions: absolute error vs Exp (hydration)
# Method: (§3) Due to unavailability of free energy data for the original COSMO model, the free energies of solvation for the molecule dataset are calculated using MolPro ver. […] The comparisons to other implicit solvent models such as SMD, PCM and COSMO-RS are limited to the overlap of the molecules computed using QM-parameterized force field model. The free energies of hydration as predicted by these implicit solvent models (SMD, PCM) were received.
# [5] = Free energy of hydration by Solvation Model Dielectric (SMD) implicit solvent model; conditions: absolute error vs Exp (hydration)
# Method: as §3
# [6] = Free energy of hydration by Polarizable Continuum Model (PCM); conditions: absolute error vs Exp (hydration)
# Method: as §3
# [7] = experimental, cited from earlier work; for Exp (hydration): Table 5
# [8] = Table 5; free energy of hydration, GAFF prediction taken from literature; cited from earlier work
# [9] = Table 5; free energy of hydration, AMOEBA prediction taken from literature; cited from earlier work
# [10] = implicit solvent model, values received; cited from earlier work
# [11] = implicit solvent model, values received; cited from earlier work; remark: listed apart in the source
# [12] = Free energy of hydration by COSMO-RS
# Method: as §3
# [13] = Free energy of solvation in cyclohexane predicted with the QM-parameterized force field model (ARROW FF), MD and PIMD; conditions: Table 4
# Source text: Cyclohexane (CHEX) is nonpolar and equilibrates relatively quickly.
# as §1, with “Particle-Mesh” for “In some simulations of the QM-parameterized force field molecular simulation process, the molecules were placed in a water or cyclohexane box of size 32×32×32 Å3. Particle-Mesh”
# as §2
# Using the QM-parameterized force field model, the QM-parameterized force field device can compute or predict the solvation free energies using both the Bennett acceptance ratio (BAR) and thermodynamic integration (TI) method with <dH/dλ> values interpolated by cubic splines.
# [14] = CHEX/H2O partition coefficient (log D) predicted with the QM-parameterized force field model (ARROW FF)
# Source text: In some simulations, the example QM-parameterized force-field molecular simulation process includes using the functional form of the bonded interactions, with force constants and equilibrium values fitted to QM energies at the MP2/aug-cc-pVTZ level of theory. In some simulations, solvents of water and cyclohexane are selected. Cyclohexane (CHEX) is nonpolar and equilibrates relatively quickly. Reliable experimental data for both CHEX solvation free energies, as well as for the CHEX/H2O partition coefficients are used in these simulations.
# In some example simulations, solutes containing neutral chemical functional groups, for example carboxylic acids, alkanes, alkenes, aromatics, aldehydes, ketones, alcohols, amides, esters, thiols, sulfides, disulfides and heterocycles, are used. The simulations were performed independently by four groups using their own respective computational resources and architectures, and then averaged. FIGS. 9A-9C show solvation and hydration free energies predictions of various solutes, using the QM-parameterized force field model, in some embodiments.
# The straight line is a line of agreement between experimental and simulated/predicted values, and the gray bar is the range or chemical accuracy. […] The molecules here are a subset of those in a) because only those with experimental values for CHEX solvation can be included.
# [15] = experimental, cited from earlier work
# [16] = CHEX/H2O partition coefficient, experimental, cited from earlier work
# [17] = Table 3, absolute error of MD hydration free energy vs experiment
# [18] = Table 3, absolute error of PIMD8 hydration free energy vs experiment
# [19] = Table 3, free energy of hydration
structure (smiles),measurement,setting,value
COC [DiMethylEther],water Arrow MD Error,[1]; [17],0.87 kcal/mol
same,water Arrow PIMD8 Error,[1]; [18],0.37 kcal/mol
same,Arrow error,[1],0.37 kcal/mol
same,Arrow PIMD8 Error,[1],0.37 kcal/mol
same,GAFF error,[2],1.06 kcal/mol
same,AMOEBA error,[3],0.31 kcal/mol
same,COSMO/Molpro Error,[4],1.99 kcal/mol
same,SMD Error,[5],1.31 kcal/mol
same,PCM Error,[6],0.11 kcal/mol
same,water Exp (hydration),[7]; [19],-1.91 kcal/mol
same,Exp (hydration),[7]; free energy of hydration,-1.91 kcal/mol
same,GAFF,[8],-0.85 kcal/mol
same,AMOEBA,[9],-2.22 kcal/mol
same,SMD free energy of hydration,[10],-0.60 kcal/mol
same,PCM free energy of hydration,[11],-1.80 kcal/mol
c1c[nH]cn1 [Imidazole],water Arrow MD Error,[1]; [17],0.81 kcal/mol
same,water Arrow PIMD8 Error,[1]; [18],0.29 kcal/mol
same,Arrow error,[1],0.29 kcal/mol
same,Arrow PIMD8 Error,[1],0.29 kcal/mol
same,GAFF error,[2],1.75 kcal/mol
same,AMOEBA error,[3],0.65 kcal/mol
same,COSMO/Molpro Error,[4],3.71 kcal/mol
same,SMD Error,[5],0.60 kcal/mol
same,PCM Error,[6],2.90 kcal/mol
same,COSMO-RS error,[12],1.30 kcal/mol
same,water Exp (hydration),[7]; [19],-9.6 kcal/mol
same,Exp (hydration),[7]; free energy of hydration,-9.60 kcal/mol
same,GAFF,[8],-7.85 kcal/mol
same,AMOEBA,[9],-10.25 kcal/mol
same,SMD free energy of hydration,[10],-9.00 kcal/mol
same,PCM free energy of hydration,[11],-6.70 kcal/mol
CSC [DiMethylSulfide],water Arrow MD Error,[1]; [17],0.59 kcal/mol
same,water Arrow PIMD8 Error,[1]; [18],0.16 kcal/mol
same,Arrow error,[1],0.16 kcal/mol
same,Arrow PIMD8 Error,[1],0.16 kcal/mol
same,GAFF error,[2],0.31 kcal/mol
same,AMOEBA error,[3],0.31 kcal/mol
same,COSMO/Molpro Error,[4],2.61 kcal/mol
same,SMD Error,[5],1.24 kcal/mol
same,PCM Error,[6],0.56 kcal/mol
same,water Exp (hydration),[7]; [19],-1.54 kcal/mol
same,Exp (hydration),[7]; free energy of hydration,-1.54 kcal/mol
same,GAFF,[8],-1.85 kcal/mol
same,AMOEBA,[9],-1.85 kcal/mol
same,SMD free energy of hydration,[10],-0.30 kcal/mol
same,PCM free energy of hydration,[11],-2.10 kcal/mol
CNC [dimethylamine],water Arrow MD Error,[1]; [17],1.38 kcal/mol
same,water Arrow PIMD8 Error,[1]; [18],0.23 kcal/mol
same,Arrow error,[1],0.23 kcal/mol
same,Arrow PIMD8 Error,[1],0.23 kcal/mol
same,GAFF error,[2],1.19 kcal/mol
same,AMOEBA error,[3],1.26 kcal/mol
same,COSMO/Molpro Error,[4],0.57 kcal/mol
same,SMD Error,[5],1.10 kcal/mol
same,PCM Error,[6],2.30 kcal/mol
same,COSMO-RS error,[12],2.12 kcal/mol
same,water Exp (hydration),[7]; [19],-4.30 kcal/mol
same,Exp (hydration),[7]; free energy of hydration,-4.30 kcal/mol
same,GAFF,[8],-3.11 kcal/mol
same,AMOEBA,[9],-3.04 kcal/mol
same,SMD free energy of hydration,[10],-3.20 kcal/mol
same,PCM free energy of hydration,[11],-2.00 kcal/mol
CCCCS [1-Butanethiol],water Arrow MD Error,[1]; [17],1.15 kcal/mol
same,water Arrow PIMD8 Error,[1]; [18],0.50 kcal/mol
same,Arrow error,[1],0.50 kcal/mol
same,Arrow PIMD8 Error,[1],0.50 kcal/mol
same,GAFF error,[2],0.69 kcal/mol
same,AMOEBA error,[3],0.87 kcal/mol
same,COSMO/Molpro Error,[4],3.06 kcal/mol
same,water Exp (hydration),[7]; [19],-0.99 kcal/mol
same,Exp (hydration),[7]; free energy of hydration,-0.99 kcal/mol
same,GAFF,[8],-1.68 kcal/mol
same,AMOEBA,[9],-0.12 kcal/mol
CCCCN [butanamine],water Arrow MD Error,[1]; [17],1.17 kcal/mol
same,water Arrow PIMD8 Error,[1]; [18],0.28 kcal/mol
same,water Arrow MD Error,"[1]; Table 4, error of MD hydration free energy vs experiment",1.17 kcal/mol
same,water Arrow PIMD8 Error,"[1]; Table 4, error of PIMD8 hydration free energy vs experiment",0.28 kcal/mol
same,Arrow PIMD8 Error,[1],0.28 kcal/mol
same,CHEX Arrow MD Error,[13]; error of MD cyclohexane solvation free energy vs experiment,0.06 kcal/mol
same,CHEX Arrow PIMD4 Error,[13]; error of PIMD4 cyclohexane solvation free energy vs experiment,0.06 kcal/mol
same,log D Arrow MD Error,[14],0.81
same,log D Arrow PIMD Error,[14],0.16
same,logD Arrow MD Error,[14],0.81
same,logD Arrow PIMD Error,[14],0.16
same,COSMO/Molpro Error,[4],1.55 kcal/mol
same,SMD Error,[5],0.74 kcal/mol
same,PCM Error,[6],1.44 kcal/mol
same,COSMO-RS error,[12],0.11 kcal/mol
same,water Exp (hydration),[7]; [19],-4.24 kcal/mol
same,water Exp (hydration),"[7]; Table 4, neutral amino-acid analogues",-4.24 kcal/mol
same,CHEX Exp (solvation),"[15]; Table 3, free energy of solvation in cyclohexane",-3.92 kcal/mol
same,CHEX Exp (solvation),"[15]; Table 4, solvation free energy in cyclohexane",-3.92 kcal/mol
same,SMD free energy of hydration,[10],-3.50 kcal/mol
same,PCM free energy of hydration,[11],-2.80 kcal/mol
same,Exp (log D),[16]; Table 3,−0.23
same,logD Exp (logD),[16]; Table 4,−0.23
C=CCC [But-1-ene],water Arrow MD Error,[1]; [17],0.54 kcal/mol
same,water Arrow PIMD8 Error,[1]; [18],0.25 kcal/mol
same,Arrow error,[1],0.25 kcal/mol
same,Arrow PIMD8 Error,[1],0.25 kcal/mol
same,GAFF error,[2],1.10 kcal/mol
same,AMOEBA error,[3],0.55 kcal/mol
same,COSMO/Molpro Error,[4],3.14 kcal/mol
same,SMD Error,[5],0.18 kcal/mol
same,PCM Error,[6],2.18 kcal/mol
same,COSMO-RS error,[12],0.36 kcal/mol
same,water Exp (hydration),[7]; [19],1.38 kcal/mol
same,Exp (hydration),[7]; free energy of hydration,1.38 kcal/mol
same,GAFF,[8],2.48 kcal/mol
same,AMOEBA,[9],0.83 kcal/mol
same,SMD free energy of hydration,[10],1.20 kcal/mol
same,PCM free energy of hydration,[11],-0.80 kcal/mol
